Measurements from patent US11420966B2 (ACLARIS THERAPEUTICS, INC., priority 2019, dated 2022).
Blank lines part the entries; values can stand above or below the molecule they belong to.

Assays:
[1] = test system: IFNγ stimulated STAT1 phosphorylation on Tyr701 (JAK1/2); test: JAK1/2 cellular target modulation: IFNγ stimulated phospho-STAT1 in PBMC; type: cell-based; details: human PBMC, IFNγ 10 ng/ml; read-out: Infγ-STAT1 IC50
Procedure, shortened: (§1)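 Thawed human PBMC (200,000/well, RPMI/10% FBS) were preincubated with compound for 1 h at 37 °C, added from 10× stocks in 1% DMSO. Stimulation and read-out: IL-2 25 ng/ml, 5 min, pSTAT5 by MSD; IL-12 1.7 ng/ml, 25 min, pSTAT4 by MSD; IFNγ 10 ng/ml, 10 min, pSTAT1 by sandwich ELISA.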

JAK1 = JAK1 (Homo sapiens (Human), UniProt P23458); test: JAK1 enzyme activity assay (Thermo Fisher SelectScreen, Z-lyte); type: biochemical; details: read-out: JAK1 Inhibition IC50
Procedure, shortened: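 Z-lyte assay with 21.2-91.5 ng JAK and […] Tyr 06 in 50 mM HEPES pH 7.0, 10 mM MgCl2, 1 mM EGTA, 0.01% BRIJ-35; 1 h kinase reaction, then development reagent. 11-point dose-response from […] to 0.34 nM, 2% DMSO vehicle; IC50 from 4-parameter logistic fit of emission ratio.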

[2] = test system: IL-12 stimulated STAT4 phosphorylation on Tyr693 (JAK2/TYK2); test: JAK2/TYK2 cellular target modulation: IL-12 stimulated phospho-STAT4 in PBMC; type: cell-based; details: human PBMC, IL-12 1.7 ng/ml; read-out: IL12-STAT4 IC50
Text: JAK Cellular Target Modulation Assays
Target modulation was based upon the ability of a compound to inhibit JAK isoform specific phosphorylation of selected substrates. IL-2 stimulated STAT5 phosphorylation on Tyr694 was used to assess JAK1/3 compound selectivity. GM-CSF stimulated STAT5 phosphorylation on Tyr694 was used to assess JAK2 compound selectivity. IFNγ stimulated STAT1 phosphorylation on Tyr701 was used to assess JAK1/2 compound selectivity. IL-12 stimulated STAT4 phosphorylation on Tyr693 was used to assess JAK2/TYK2 compound selectivity. For all four assays, human PBMC from frozen stocks were thawed, pelleted, resuspended in complete media (90% RPMI, 10% heat inactivated FBS, 10 mM HEPES, 47 μM 2-ME, pen/strep) and placed in wells of a 96 well V-bottom plate at 200,000 per well in 120 μl complete media. Compounds were added as 15 μl per well of 10× working stock solutions in complete media with 1% DMSO (or medium with 1% DMSO for controls) and placed on a plate shaker in a 37° C. incubator with 5% CO2 for 1 hour with gentle shaking (setting of 3). Stimulation used the addition of soluble cytokines. For the JAK1/3 phospho-STAT5 assay, 15 μl of 10× working stock recombinant human IL-2 was added to a final concentration of 25 ng/ml. For the JAK2 phospho-STAT5 assay, 15 μl of 10× working stock recombinant human GM-CSF was added to a final concentration of 5 ng/ml. For the JAK1/2 phospho-STAT1 assay, 15 μl of 10× working stock of recombinant human IFNγ was added to a final concentration of 10 ng/ml. For the JAK2/TYK2 phospho-STAT4 assay, 15 μl of 10× working stock of recombinant human IL-12 was added to a final concentration of 1.7 ng/ml. Plates were then placed back on the plate shaker in the incubator for an additional 5, 5, 10, and 25 minutes respectively upon which the plates were removed from the incubator, sealed with a plate sealer and the cells pelleted at 400×g for 5 minutes. After pelleting, the media was removed by aspiration and the cells were lysed in assay specific cell lysis buffer. The levels of phospho-STATS were determined using a Phospho (Tyr694) STAT5a,b Whole Cell Lysate kit from Meso Scale Discovery. Levels of phospho-STAT1 were determined using a CST-PathScan Phospho-STAT1 (Tyr701) Sandwich ELISA kit. Levels of phospho-STAT4 were determined using a Phospho-STAT4 (Tyr693) Whole Cell Lysate kit from Meso Scale Discovery.

[3] = test system: IL-2 stimulated STAT5 phosphorylation on Tyr694 (JAK1/3); test: JAK1/3 cellular target modulation: IL-2 stimulated phospho-STAT5 in PBMC; type: cell-based; details: human PBMC, IL-2 25 ng/ml; read-out: IL2-STAT5 IC50
Procedure, shortened: as §1

Tyk-2 = Tyk-2 (Homo sapiens (Human), UniProt P29597); test: Tyk-2 enzyme activity assay (Thermo Fisher SelectScreen, Z-lyte); type: biochemical; details: read-out: Tyk-2 Inhibition IC50
Procedure, shortened: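 Z-lyte FRET assay: 3.75–15 ng TYK2 with […] Tyr 03 peptide in HEPES pH 7.0, MgCl2, EGTA, BRIJ-35; 1 h reaction, then development reagent. 11-point dose-response, 2% DMSO; IC50 via 4-parameter fit of emission ratio, background without enzyme.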

JAK3 (a.a. 781-1124) = JAK3 (a.a. 781-1124) (Homo sapiens (Human), UniProt P52333); test: JAK3 enzyme activity assay (SRCtide phosphorylation, Caliper); type: biochemical; details: 1 uM ATP; read-out: JAK3 Inhibition IC50
JAK2 = JAK2 (Homo sapiens (Human), UniProt O60674); test: JAK2 enzyme activity assay (Thermo Fisher SelectScreen, Z-lyte); type: biochemical; details: read-out: JAK2 Inhibition IC50
Procedure, shortened: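 IC50 values derive from a 4-parameter logistic fit of emission ratio across an 11-point series ([…] to 0.34 nM, 2% DMSO vehicle). Reaction: 1 h, 0.12-0.5 ng JAK2, […] Tyr 06 in HEPES pH 7.5 buffer with MgCl2, EGTA, BRIJ-35, read by Z-lyte development.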

Chain of JAK1 (P23458 whole entry): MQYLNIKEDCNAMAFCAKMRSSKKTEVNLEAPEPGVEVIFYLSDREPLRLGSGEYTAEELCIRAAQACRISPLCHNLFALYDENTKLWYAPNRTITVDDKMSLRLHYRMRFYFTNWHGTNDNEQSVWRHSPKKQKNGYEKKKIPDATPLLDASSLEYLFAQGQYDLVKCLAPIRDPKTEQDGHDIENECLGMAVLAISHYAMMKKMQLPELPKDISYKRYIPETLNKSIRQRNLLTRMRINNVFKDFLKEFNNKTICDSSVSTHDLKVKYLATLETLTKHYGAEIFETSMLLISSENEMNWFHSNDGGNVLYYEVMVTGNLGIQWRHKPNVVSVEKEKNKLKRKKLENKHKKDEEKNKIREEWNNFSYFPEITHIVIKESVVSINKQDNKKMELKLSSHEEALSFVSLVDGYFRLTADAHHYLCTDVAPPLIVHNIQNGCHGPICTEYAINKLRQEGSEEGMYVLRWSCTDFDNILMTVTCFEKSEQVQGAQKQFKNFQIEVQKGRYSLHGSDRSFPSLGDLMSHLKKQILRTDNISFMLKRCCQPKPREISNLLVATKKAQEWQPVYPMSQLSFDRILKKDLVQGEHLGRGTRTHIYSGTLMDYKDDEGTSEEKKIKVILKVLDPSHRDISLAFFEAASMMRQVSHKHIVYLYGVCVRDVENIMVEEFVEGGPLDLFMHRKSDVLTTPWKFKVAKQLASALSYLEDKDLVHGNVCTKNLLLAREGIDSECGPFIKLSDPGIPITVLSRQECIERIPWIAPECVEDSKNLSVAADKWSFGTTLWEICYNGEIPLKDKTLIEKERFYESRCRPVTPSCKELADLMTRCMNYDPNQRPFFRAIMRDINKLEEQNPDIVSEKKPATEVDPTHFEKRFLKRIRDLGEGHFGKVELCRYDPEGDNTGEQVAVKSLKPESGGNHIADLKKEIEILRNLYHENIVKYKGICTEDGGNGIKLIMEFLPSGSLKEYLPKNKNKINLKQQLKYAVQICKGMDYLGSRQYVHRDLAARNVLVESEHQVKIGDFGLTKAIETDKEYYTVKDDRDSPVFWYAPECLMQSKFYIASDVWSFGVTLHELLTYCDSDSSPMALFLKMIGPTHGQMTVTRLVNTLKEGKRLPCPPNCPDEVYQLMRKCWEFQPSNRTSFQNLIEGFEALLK
Chain of JAK2 (O60674 whole entry): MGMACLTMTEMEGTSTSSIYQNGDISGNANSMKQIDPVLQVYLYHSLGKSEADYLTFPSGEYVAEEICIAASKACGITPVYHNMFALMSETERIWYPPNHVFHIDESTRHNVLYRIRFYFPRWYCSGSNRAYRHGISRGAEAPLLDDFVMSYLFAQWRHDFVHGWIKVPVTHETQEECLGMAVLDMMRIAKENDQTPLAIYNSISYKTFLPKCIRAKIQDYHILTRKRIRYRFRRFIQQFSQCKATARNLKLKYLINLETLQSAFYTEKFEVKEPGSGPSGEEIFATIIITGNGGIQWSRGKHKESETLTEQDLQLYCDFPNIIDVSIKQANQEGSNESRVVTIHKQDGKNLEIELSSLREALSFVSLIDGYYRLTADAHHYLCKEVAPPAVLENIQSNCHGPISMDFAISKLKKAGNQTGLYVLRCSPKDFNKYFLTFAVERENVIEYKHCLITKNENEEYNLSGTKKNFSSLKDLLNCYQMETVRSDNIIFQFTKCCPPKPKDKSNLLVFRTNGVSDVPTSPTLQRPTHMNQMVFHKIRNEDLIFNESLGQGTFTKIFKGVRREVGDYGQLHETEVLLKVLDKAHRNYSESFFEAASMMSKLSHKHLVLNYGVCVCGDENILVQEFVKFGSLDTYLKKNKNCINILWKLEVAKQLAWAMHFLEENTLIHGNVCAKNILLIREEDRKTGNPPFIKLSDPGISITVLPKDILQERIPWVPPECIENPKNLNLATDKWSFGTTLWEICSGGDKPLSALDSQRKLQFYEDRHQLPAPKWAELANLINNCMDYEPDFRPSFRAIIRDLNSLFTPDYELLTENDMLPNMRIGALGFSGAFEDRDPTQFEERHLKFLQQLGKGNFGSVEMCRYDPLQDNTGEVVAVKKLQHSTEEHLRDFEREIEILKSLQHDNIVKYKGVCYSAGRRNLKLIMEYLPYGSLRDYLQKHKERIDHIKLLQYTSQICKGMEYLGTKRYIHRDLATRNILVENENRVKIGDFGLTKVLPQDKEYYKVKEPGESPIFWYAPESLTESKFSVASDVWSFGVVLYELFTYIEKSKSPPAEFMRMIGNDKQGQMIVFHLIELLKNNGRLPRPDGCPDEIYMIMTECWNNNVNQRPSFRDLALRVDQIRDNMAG
Chain of Tyk-2 (P29597 whole entry): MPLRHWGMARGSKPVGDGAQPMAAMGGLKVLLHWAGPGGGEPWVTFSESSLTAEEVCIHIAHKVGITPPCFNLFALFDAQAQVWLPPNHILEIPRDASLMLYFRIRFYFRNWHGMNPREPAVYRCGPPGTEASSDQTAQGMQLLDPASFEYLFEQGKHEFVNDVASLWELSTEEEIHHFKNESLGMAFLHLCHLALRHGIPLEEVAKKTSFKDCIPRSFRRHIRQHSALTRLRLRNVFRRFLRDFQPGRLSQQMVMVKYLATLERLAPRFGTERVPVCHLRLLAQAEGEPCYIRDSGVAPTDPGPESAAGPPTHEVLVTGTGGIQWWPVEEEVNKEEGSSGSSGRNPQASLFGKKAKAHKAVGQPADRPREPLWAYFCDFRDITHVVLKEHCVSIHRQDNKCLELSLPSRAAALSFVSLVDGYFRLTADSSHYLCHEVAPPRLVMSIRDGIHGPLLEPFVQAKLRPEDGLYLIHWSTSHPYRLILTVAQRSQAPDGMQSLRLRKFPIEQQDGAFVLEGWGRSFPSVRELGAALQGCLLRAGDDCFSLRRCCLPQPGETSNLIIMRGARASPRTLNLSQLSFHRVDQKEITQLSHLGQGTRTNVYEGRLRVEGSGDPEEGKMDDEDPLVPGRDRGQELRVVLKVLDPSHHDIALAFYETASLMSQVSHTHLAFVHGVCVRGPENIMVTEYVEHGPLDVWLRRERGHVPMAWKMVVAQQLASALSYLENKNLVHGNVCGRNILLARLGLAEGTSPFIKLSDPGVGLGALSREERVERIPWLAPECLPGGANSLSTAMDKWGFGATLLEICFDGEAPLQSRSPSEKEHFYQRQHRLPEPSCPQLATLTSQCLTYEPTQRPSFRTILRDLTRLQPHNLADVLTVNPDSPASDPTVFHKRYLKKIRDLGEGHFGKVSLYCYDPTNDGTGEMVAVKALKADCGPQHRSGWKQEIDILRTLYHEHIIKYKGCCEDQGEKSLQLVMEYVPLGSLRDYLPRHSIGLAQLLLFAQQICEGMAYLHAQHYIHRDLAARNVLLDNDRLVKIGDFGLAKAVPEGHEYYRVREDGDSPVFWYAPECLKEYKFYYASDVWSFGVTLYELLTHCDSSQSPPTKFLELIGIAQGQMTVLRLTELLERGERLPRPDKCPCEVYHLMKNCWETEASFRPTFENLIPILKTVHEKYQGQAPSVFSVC
Chain of JAK3 (a.a. 781-1124) (P52333 781-1124): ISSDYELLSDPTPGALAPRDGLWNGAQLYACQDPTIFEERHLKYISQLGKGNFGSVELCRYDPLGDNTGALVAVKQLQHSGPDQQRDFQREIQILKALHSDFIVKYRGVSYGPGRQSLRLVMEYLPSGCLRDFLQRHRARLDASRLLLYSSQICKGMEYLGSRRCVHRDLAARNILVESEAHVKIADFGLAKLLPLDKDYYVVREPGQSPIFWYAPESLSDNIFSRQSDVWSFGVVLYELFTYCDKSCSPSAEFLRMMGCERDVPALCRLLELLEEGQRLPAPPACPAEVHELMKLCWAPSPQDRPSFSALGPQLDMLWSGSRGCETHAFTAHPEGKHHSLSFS

Structure (SMILES): NC(=O)c1coc(-c2cnc3[nH]ccc3c2N[C@H]2CC[C@@H](O)C2)n1 [Example 29, 2-(4-(((1S,3R)-3-hydroxycyclopentyl)amino)-1H-pyrrolo[2,3-b]pyridin-5-yl)oxazole-4-carboxamide]
IC50 [1]: 100 to 1000 nM | IC50 (JAK1): 10 to 100 nM | IC50 [2]: > 1000 nM | IC50 [3]: ≤ 100 nM | IC50 (Tyk-2): 100 to 1000 nM | IC50 (JAK3 (a.a. 781-1124)): ≤ 10 nM | IC50 (JAK2): 10 to 100 nM

Structure (SMILES): N#CCC(=O)N1CCC[C@@H](Nc2c(-c3ccsn3)cnc3[nH]ccc23)C1 [Example 41, (R)-3-(3-((5-(isothiazol-3-yl)-1H-pyrrolo[2,3-b]pyridin-4-yl)amino)piperidin-1-yl)-3-oxopropanenitrile]
IC50 [1]: 100 to 1000 nM | IC50 (JAK1): ≤ 10 nM | IC50 [2]: 100 to 1000 nM | IC50 [3]: ≤ 100 nM | IC50 (Tyk-2): ≤ 10 nM | IC50 (JAK3 (a.a. 781-1124)): ≤ 10 nM | IC50 (JAK2): ≤ 10 nM

Structure (SMILES): CNC(=O)c1coc(-c2cnc3[nH]ccc3c2N[C@@H]2CCCN(C(=O)CC#N)C2)n1 [Example 33, (R)-2-(4-((1-(2-cyanoacetyl)piperidin-3-yl)amino)-1H-pyrrolo[2,3-b]pyridin-5-yl)-N-methyloxazole-4-carboxamide]
IC50 [1]: 100 to 1000 nM | IC50 (JAK1): ≤ 10 nM | IC50 [2]: > 1000 nM | IC50 [3]: ≤ 100 nM | IC50 (Tyk-2): 10 to 100 nM | IC50 (JAK3 (a.a. 781-1124)): ≤ 10 nM | IC50 (JAK2): 10 to 100 nM

Structure (SMILES): N#CCC(=O)N1CCC[C@@H](Nc2c(-c3cccc(N)n3)cnc3[nH]ccc23)C1 [Example 44, (R)-3-(3-((5-(6-aminopyridin-2-yl)-1H-pyrrolo[2,3-b]pyridin-4-yl)amino)piperidin-1-yl)-3-oxopropanenitrile]
IC50 [1]: 100 to 1000 nM | IC50 (JAK1): ≤ 10 nM | IC50 [2]: > 1000 nM | IC50 [3]: 100 to 1000 nM | IC50 (Tyk-2): 10 to 100 nM | IC50 (JAK3 (a.a. 781-1124)): 10 to 100 nM | IC50 (JAK2): 10 to 100 nM

Structure (SMILES): N#CCC(=O)N1CCC[C@@H](Nc2c(-c3ccn[nH]3)cnc3[nH]ccc23)C1 [Example 18, (R)-3-(3-((5-(1H-pyrazol-5-yl)-1H-pyrrolo[2,3-b]pyridin-4-yl)amino)piperidin-1-yl)-3-oxopropanenitrile]
IC50 [1]: 100 to 1000 nM | IC50 (JAK1): ≤ 10 nM | IC50 [2]: > 1000 nM | IC50 [3]: ≤ 100 nM | IC50 (Tyk-2): 10 to 100 nM | IC50 (JAK3 (a.a. 781-1124)): ≤ 10 nM | IC50 (JAK2): 10 to 100 nM

Second part, the molecule after the results:

IC50 [1]: 100 to 1000 nM | IC50 (JAK1): ≤ 10 nM | IC50 [2]: > 1000 nM | IC50 [3]: ≤ 100 nM | IC50 (Tyk-2): 10 to 100 nM | IC50 (JAK3 (a.a. 781-1124)): ≤ 10 nM | IC50 (JAK2): 10 to 100 nM
Structure (SMILES): Cc1cnc(-c2cnc3[nH]ccc3c2N[C@@H]2CCCN(CCC#N)C2)o1 [Example 37, (R)-3-(3-((5-(5-methyloxazol-2-yl)-1H-pyrrolo[2,3-b]pyridin-4-yl)amino)piperidin-1-yl)propanenitrile]

IC50 [1]: 100 to 1000 nM | IC50 (JAK1): ≤ 10 nM | IC50 [2]: 100 to 1000 nM | IC50 [3]: ≤ 100 nM | IC50 (Tyk-2): 10 to 100 nM | IC50 (JAK3 (a.a. 781-1124)): 10 to 100 nM | IC50 (JAK2): 10 to 100 nM
Structure (SMILES): N#CCC(=O)N1CCC[C@@H](Nc2c(-c3ccccn3)cnc3[nH]ccc23)C1 [Example 21, (R)-3-oxo-3-(3-((5-(pyridin-2-yl)-1H-pyrrolo[2,3-b]pyridin-4-yl)amino)piperidin-1-yl)propanenitrile]

IC50 [1]: ≤ 100 nM | IC50 (JAK1): ≤ 10 nM | IC50 [2]: 100 to 1000 nM | IC50 [3]: ≤ 100 nM | IC50 (Tyk-2): ≤ 10 nM | IC50 (JAK3 (a.a. 781-1124)): ≤ 10 nM | IC50 (JAK2): ≤ 10 nM
Structure (SMILES): C[C@H]1CC[C@@H](Nc2c(-c3ncco3)cnc3[nH]ccc23)CN1C(=O)CC#N [Example 28, 3-((2S,5R)-2-methyl-5-((5-(oxazol-2-yl)-1H-pyrrolo[2,3-b]pyridin-4-yl)amino)piperidin-1-yl)-3-oxopropanenitrile]
